Laboratory results reported in US6479435B1, “Diaryl ethers and processes for their preparation and herbicidal and desiccant compositions containing them” (ISK Americas Incorporated, priority 1997, dated 2002).

Assays:
Type in all cases: in vivo
[1] = system: barnyardgrass (Echinochloa crusgalli, ECHCG); experiment: Post-emerge greenhouse herbicide test, phytotoxicity rating; conditions: Echinochloa crus-galli, post-emergence, 336 h, 14 days after application, scale 0-100; for pest or weed control at 63 g/ha: rate 63 g ai/ha; for pest or weed control at 500 g/ha: rate 500 g ai/ha
Summary of the method: (§1)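 Compounds in acetone with 0.25% v/v non-ionic surfactant were track-sprayed at 187 l/ha over plants at the 2-3 leaf stage, at 63 to 1000 g ai/ha. Pots were bottom-watered. Injury was scored visually 14 days later on a 0-100 scale, where 0 is no damage and 100 is complete plant death.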

[2] = system: sicklepod (Cassia obtusifolia, CASOB); experiment: as above; conditions: Senna obtusifolia, post-emergence, 336 h, 14 days after application, scale 0-100; for pest or weed control at 63 g/ha: rate 63 g ai/ha; for pest or weed control at 500 g/ha: rate 500 g ai/ha
Summary of the method: as §1

[3] = system: Johnsongrass (Sorghum halepense, SORHA); experiment: as above; conditions: Sorghum halepense, post-emergence, 336 h, 14 days after application, scale 0-100; for pest or weed control at 63 g/ha: rate 63 g ai/ha; for pest or weed control at 500 g/ha: rate 500 g ai/ha
Summary of the method: as §1

[4] = system: ivyleaf morningglory (Ipomoea hederacea, IPOHE); experiment: as above; conditions: Ipomoea, post-emergence, 336 h, 14 days after application, scale 0-100; for pest or weed control at 63 g/ha: rate 63 g ai/ha; for pest or weed control at 500 g/ha: rate 500 g ai/ha
Summary of the method: as §1

[5] = system: lambsquarters (Chenopodium album, CHEAL); experiment: as above; conditions: Chenopodium album, post-emergence, 336 h, 14 days after application, scale 0-100; for pest or weed control at 63 g/ha: rate 63 g ai/ha; for pest or weed control at 500 g/ha: rate 500 g ai/ha
Summary of the method: as §1

[6] = system: large crabgrass (Digitaria sanguinalis, DIGSA); experiment: as above; conditions: Digitaria sanguinalis, post-emergence, 336 h, 14 days after application, scale 0-100; for pest or weed control at 63 g/ha: rate 63 g ai/ha; for pest or weed control at 500 g/ha: rate 500 g ai/ha
Summary of the method: as §1

[7] = system: velvetleaf (Abutilon theophrasti, ABUTH); experiment: as above; conditions: Abutilon theophrasti, post-emergence, 336 h, 14 days after application, scale 0-100; for pest or weed control at 63 g/ha: rate 63 g ai/ha; for pest or weed control at 500 g/ha: rate 500 g ai/ha
Summary of the method: as §1

[8] = system: green foxtail (Setaria viridis, SETVI); experiment: as above; conditions: Setaria viridis, post-emergence, 336 h, 14 days after application, scale 0-100; for pest or weed control at 63 g/ha: rate 63 g ai/ha; for pest or weed control at 500 g/ha: rate 500 g ai/ha
Summary of the method: as §1

[9] = system: redroot pigweed (Amaranthus retroflexus, AMARE); experiment: as above; conditions: Amaranthus retroflexus, post-emergence, 336 h, 14 days after application, scale 0-100; for pest or weed control at 63 g/ha: rate 63 g ai/ha; for pest or weed control at 500 g/ha: rate 500 g ai/ha
Summary of the method: as §1

[10] = system: sicklepod (Cassia obtusifolia, CASOB); experiment: Pre-emerge greenhouse herbicide test, phytotoxicity rating; conditions: Senna obtusifolia, pre-emergence, 336 h, 14 days after application, rating scale 0-100; for pest or weed control at 125 g/ha: Rate 125 g al/ha; for pest or weed control at 500 g/ha: Rate 500 g al/ha
Summary of the method: (§2)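 Seeds sown in sandy loam mix one day before track-sprayer application of compounds in acetone at 125–1000 g ai/ha (187 l/ha), then surface-watered to incorporate and bottom-watered. Visual rating 14 days after application on a 0–100 scale (0 = no damage, 100 = all plants dead).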

[11] = system: Johnsongrass (Sorghum halepense, SORHA); experiment: as above; conditions: Sorghum halepense, pre-emergence, 336 h, 14 days after application, rating scale 0-100; for pest or weed control at 125 g/ha: Rate 125 g al/ha; for pest or weed control at 500 g/ha: Rate 500 g al/ha
Summary of the method: as §2

[12] = system: ivyleaf morningglory (Ipomoea hederacea, IPOHE); experiment: as above; conditions: Ipomoea, pre-emergence, 336 h, 14 days after application, rating scale 0-100; for pest or weed control at 125 g/ha: Rate 125 g al/ha; for pest or weed control at 500 g/ha: Rate 500 g al/ha
Summary of the method: as §2

[13] = system: lambsquarters (Chenopodium album, CHEAL); experiment: as above; conditions: Chenopodium album, pre-emergence, 336 h, 14 days after application, rating scale 0-100; for pest or weed control at 125 g/ha: Rate 125 g al/ha; for pest or weed control at 500 g/ha: Rate 500 g al/ha
Summary of the method: as §2

[14] = system: velvetleaf (Abutilon theophrasti, ABUTH); experiment: as above; conditions: Abutilon theophrasti, pre-emergence, 336 h, 14 days after application, rating scale 0-100; for pest or weed control at 125 g/ha: Rate 125 g al/ha; for pest or weed control at 500 g/ha: Rate 500 g al/ha
Summary of the method: as §2

[15] = system: green foxtail (Setaria viridis, SETVI); experiment: as above; conditions: Setaria viridis, pre-emergence, 336 h, 14 days after application, rating scale 0-100; for pest or weed control at 125 g/ha: Rate 125 g al/ha; for pest or weed control at 500 g/ha: Rate 500 g al/ha
Summary of the method: as §2

| SMILES | pest or weed control at 63 g/ha [1] [%] | pest or weed control at 500 g/ha [1] [%] | pest or weed control at 63 g/ha [2] [%] | pest or weed control at 500 g/ha [2] [%] | pest or weed control at 63 g/ha [3] [%] | pest or weed control at 500 g/ha [3] [%] | pest or weed control at 63 g/ha [4] [%] | pest or weed control at 500 g/ha [4] [%] | pest or weed control at 63 g/ha [5] [%] | pest or weed control at 500 g/ha [5] [%] | pest or weed control at 63 g/ha [6] [%] | pest or weed control at 500 g/ha [6] [%] | pest or weed control at 63 g/ha [7] [%] | pest or weed control at 500 g/ha [7] [%] | pest or weed control at 63 g/ha [8] [%] | pest or weed control at 500 g/ha [8] [%] | pest or weed control at 63 g/ha [9] [%] | pest or weed control at 500 g/ha [9] [%] | pest or weed control at 125 g/ha [10] [%] | pest or weed control at 500 g/ha [10] [%] | other results |
| --- | --- | --- | --- | --- | --- | --- | --- | --- | --- | --- | --- | --- | --- | --- | --- | --- | --- | --- | --- | --- | --- |
| Nn1c(C(F)(F)F)cc(=O)n(-c2cc(Oc3cc([N+](=O)[O-])cc(C(F)(F)F)c3)c(Cl)cc2F)c1=O [Compound 9-23, 1-Amino-3-[4-chloro-2-fluoro-5-(3-nitro-5-trifluoromethylphenoxy)phenyl]-6-trifluoromethyl-1,2,3,4-tetrahydropyrimidine-2,4-dione] | 0 | 50 | 10 | 30 | 0 | 30 | 50 | 75 | 70 | 95 | 0 | 0 | 45 | 90 | 0 | 10 | 85 | 85 | 0 | 10 | pest or weed control at 125 g/ha [11]: 10%; pest or weed control at 500 g/ha [11]: 70%; pest or weed control at 125 g/ha [12]: 0%; pest or weed control at 500 g/ha [12]: 0%; pest or weed control at 125 g/ha [13]: 95%; pest or weed control at 500 g/ha [13]: 100%; pest or weed control at 125 g/ha [14]: 40%; pest or weed control at 500 g/ha [14]: 100%; pest or weed control at 125 g/ha [15]: 40%; pest or weed control at 500 g/ha [15]: 100% |
| Nn1c(C(F)(F)F)cc(=O)n(-c2cc(Oc3ccc([N+](=O)[O-])cn3)c(Cl)cc2F)c1=O [Compound 9-11, 1-Amino-3-[4-chloro-2-fluoro-5-(5-nitro-2-pyridyloxy)phenyl]-6-trifluoromethyl-1,2,3,4-tetrahydropyrimidine-2,4-dione] | 0 | 50 | 30 | 80 | 20 | 80 | 100 | 100 | 80 | 100 | 40 | 80 | 100 | 100 | 20 | 40 | 100 | 100 | 10 | 20 | pest or weed control at 125 g/ha [11]: 20%; pest or weed control at 500 g/ha [11]: 90%; pest or weed control at 125 g/ha [12]: 10%; pest or weed control at 500 g/ha [12]: 100%; pest or weed control at 125 g/ha [13]: 100%; pest or weed control at 500 g/ha [13]: 100%; pest or weed control at 125 g/ha [14]: 100%; pest or weed control at 500 g/ha [14]: 100%; pest or weed control at 125 g/ha [15]: 70%; pest or weed control at 500 g/ha [15]: 100% |
| Nn1c(C(F)(F)F)cc(=O)n(-c2cc(Oc3nccc(Cl)n3)c(Cl)cc2F)c1=O [Compound 9-17, 1-Amino-3-[4-chloro-2-fluoro-5-(4-chloro-2-pyrimidyloxy)phenyl]-6-trifluoromethyl-1,2,3,4-tetrahydropyrimidine-2,4-dione] | 0 | 60 | 0 | 0 | 0 | 80 | 100 | 95 | 80 | 90 | 10 | 10 | 100 | 100 | 10 | 10 | 95 | 95 | 20 | 70 | pest or weed control at 125 g/ha [11]: 30%; pest or weed control at 500 g/ha [11]: 90%; pest or weed control at 125 g/ha [12]: 20%; pest or weed control at 500 g/ha [12]: 100%; pest or weed control at 125 g/ha [13]: 100%; pest or weed control at 500 g/ha [13]: 100%; pest or weed control at 125 g/ha [14]: 100%; pest or weed control at 500 g/ha [14]: 100%; pest or weed control at 125 g/ha [15]: 90%; pest or weed control at 500 g/ha [15]: 100% |
